Like-named read-outs stand apart in the source and are kept apart here.
Assays:
[1] = tested on: 786-0; assay: in vitro renal cancer cell growth inhibition (NCI screen)
[2] = tested on: RXF-393; assay: as above
[3] = tested on: NCI-H522; assay: in vitro non-small cell lung cancer cell growth inhibition (NCI screen)
[4] = tested on: SF-295; assay: in vitro CNS cancer cell growth inhibition (NCI screen)
[5] = tested on: SK-OV-3; assay: in vitro ovarian cancer cell growth inhibition (NCI screen)
[6] = tested on: UACC-62; assay: in vitro melanoma cell growth inhibition (NCI screen)
[7] = tested on: HS 578T; assay: in vitro breast cancer cell growth inhibition (NCI screen)
[8] = tested on: SNB-75; assay: in vitro CNS cancer cell growth inhibition (NCI screen)
[9] = tested on: human tumor cell lines; assay type: cell-based; conditions: for GI50: Homo sapiens
[10] = tested on: HCC-2998; assay: in vitro colon cancer cell growth inhibition (NCI screen)
[11] = tested on: NCI-H460; assay: in vitro non-small cell lung cancer cell growth inhibition (NCI screen)
[12] = tested on: SF-539; assay: in vitro CNS cancer cell growth inhibition (NCI screen)
[13] = tested on: OVCAR-4; assay: in vitro ovarian cancer cell growth inhibition (NCI screen); conditions: OVACR-4
[14] = tested on: NCI-H23; assay: in vitro non-small cell lung cancer cell growth inhibition (NCI screen)
[15] = tested on: MDA-MB-435; assay: in vitro breast cancer cell growth inhibition (NCI screen)
[16] = tested on: MCF-7; assay: as above
[17] = tested on: IGROV1; assay: in vitro ovarian cancer cell growth inhibition (NCI screen)
[18] = tested on: SK-MEL-28; assay: in vitro melanoma cell growth inhibition (NCI screen)
[19] = tested on: OVCAR-5; assay: in vitro ovarian cancer cell growth inhibition (NCI screen)
[20] = tested on: HCT-116; assay: in vitro colon cancer cell growth inhibition (NCI screen)
[21] = tested on: MDA-N; assay: in vitro breast cancer cell growth inhibition (NCI screen)
[22] = tested on: DU-145; assay: in vitro prostate cancer cell growth inhibition (NCI screen)
[23] = tested on: UACC-257; assay: in vitro melanoma cell growth inhibition (NCI screen)
[24] = tested on: BT-549; assay: in vitro breast cancer cell growth inhibition (NCI screen)
[25] = tested on: MALME-3M; assay: in vitro melanoma cell growth inhibition (NCI screen)
[26] = tested on: M14; assay: as above
[27] = tested on: SK-MEL-2; assay: as above
[28] = tested on: OVCAR-3; assay: in vitro ovarian cancer cell growth inhibition (NCI screen)
[29] = tested on: OVCAR-8; assay: as above
[30] = tested on: KM 12; assay: in vitro colon cancer cell growth inhibition (NCI screen)
[31] = tested on: KB cells; assay: in vitro cytotoxicity screening against KB cells in culture; assay type: cell-based; conditions: Homo sapiens, calculated from 2 data points across 50% inhibition in cell growth, read-out: ED50 (the source's name)
Method: Compound 5 was assayed for in vitro cytotoxicity against KB cells in culture, following the protocol of Monks. The KB cell line was obtained from the American Type Culture Collection, Rockville, MD, and cells were adapted to grow in antibiotic-free RPMI-1640 medium supplemented with […] calf serum.
The ED50 value was calculated mathematically from 2 data points across 50% inhibition in cell growth.

[32] = tested on: U 251; assay: in vitro CNS cancer cell growth inhibition (NCI screen)
[33] = tested on: SW 620; assay: in vitro colon cancer cell growth inhibition (NCI screen)
[34] = tested on: HOP-92; assay: in vitro non-small cell lung cancer cell growth inhibition (NCI screen)
[35] = tested on: COLO-205; assay: in vitro colon cancer cell growth inhibition (NCI screen)
[36] = tested on: SF-268; assay: in vitro CNS cancer cell growth inhibition (NCI screen)
[37] = cancer cell panel, general / most cell lines, read-out: logGI50 values in the cancer cell line panel (converted)

`CCn1c(-c2cc(OC)cc(OC)c2)nc2c1C(=O)c1ccccc1C2=O` [Compound 28] was tested, and the “cytotoxicity log GI50” value [1] was -4.34 M, the “cytotoxicity log GI50” value [2] was -4.86 M and the “cytotoxicity log GI50” value [3] was -5.19 M. For the same compound, the “cytotoxicity log GI50” value [4] was -4.53 M, the “cytotoxicity log GI50” value [5] was -5.41 M and the “cytotoxicity log GI50” value [6] was -4.69 M. The “cytotoxicity log GI50” value [7] was -4.44 M, the “cytotoxicity log GI50” value [8] was -4.65 M and the GI50 [9, 37] was roughly 10000 nM.
`COC(=O)CCCC(=O)NC1=C(Nc2ccc(OC)cc2)C(=O)c2ccccc2C1=O` [Compound 53] was tested, and the “cytotoxicity log GI50” value [10] was -4.69 M, the “cytotoxicity log GI50” value [11] was -4.80 M and the “cytotoxicity log GI50” value [12] was -4.71 M. The “cytotoxicity log GI50” value [13] was -4.75 M, the “cytotoxicity log GI50” value [14] was -4.69 M and the “cytotoxicity log GI50” value [15] was -4.74 M. The “cytotoxicity log GI50” value [16] was -4.77 M, the “cytotoxicity log GI50” value [17] was -4.74 M and the “cytotoxicity log GI50” value [6] was -4.89 M. The “cytotoxicity log GI50” value [18] was -4.68 M, the “cytotoxicity log GI50” value [19] was -4.73 M and the “cytotoxicity log GI50” value [20] was -4.71 M. The “cytotoxicity log GI50” value [21] was -4.68 M, the “cytotoxicity log GI50” value [22] was -4.79 M and the “cytotoxicity log GI50” value [23] was -4.74 M. For the same compound, the “cytotoxicity log GI50” value [24] was -4.71 M, the “cytotoxicity log GI50” value [25] was -5.47 M and the “cytotoxicity log GI50” value [26] was -4.71 M. The “cytotoxicity log GI50” value [27] was -4.75 M and the “cytotoxicity log GI50” value [28] was -5.20 M.
With `CCn1c(C)nc2c1C(=O)c1ccccc1C2=O` [Compound 5, 1-ethyl-2-methylnaphth-[2,3-d]imidazole-4,9-dione] the “cytotoxicity log GI50” value [29] was -6.31 M, the “cytotoxicity log GI50” value [30] was -5.76 M and the “cytotoxicity log GI50” value [13] was -6.49 M. For the same compound, the IC50 [31] was less than 0.4 µg/mL, the “cytotoxicity log GI50” value [14] was -5.81 M and the “cytotoxicity log GI50” value [32] was -5.72 M. For the same compound, the “cytotoxicity log GI50” value [3] was -6.62 M, the “cytotoxicity log GI50” value [33] was -6.17 M and the “cytotoxicity log GI50” value [16] was -6.17 M. For the same compound, the “cytotoxicity log GI50” value [19] was -6.11 M, the “cytotoxicity log GI50” value [34] was -5.79 M and the “cytotoxicity log GI50” value [20] was -5.91 M. For the same compound, the “cytotoxicity log GI50” value [35] was -6.45 M, the GI50 ([9]; OVCAR-3, -4, -5, and -8 ovarian cancer cell lines, read-out: logGI50 values (range over cell lines) (converted)) was 50.1 to 794 nM and the GI50 [9, 37] was 100 to 1000 nM. For the same compound, the “cytotoxicity against tumor cells (in words)” value ([9]; cancer cell line panel) was “most active naphth[2,3-d]imidazole-4,9-dione derivative”, the “cytotoxicity log GI50” value [36] was -6.48 M and the “cytotoxicity log GI50” value [28] was -7.30 M.

Source: patent US5789431A, “Naphthoquinone antitumor compound and method” (The University of North Carolina at Chapel Hill, priority 1996, dated 1998)
